Source: patent US20080254487A1, “Connective Tissue Growth Factor Signaling” (FIBROGEN, INC., priority 2004, published 2008)

T1: CTGF (Homo sapiens, UniProt P29279)
T1 sequence (P29279 27-349): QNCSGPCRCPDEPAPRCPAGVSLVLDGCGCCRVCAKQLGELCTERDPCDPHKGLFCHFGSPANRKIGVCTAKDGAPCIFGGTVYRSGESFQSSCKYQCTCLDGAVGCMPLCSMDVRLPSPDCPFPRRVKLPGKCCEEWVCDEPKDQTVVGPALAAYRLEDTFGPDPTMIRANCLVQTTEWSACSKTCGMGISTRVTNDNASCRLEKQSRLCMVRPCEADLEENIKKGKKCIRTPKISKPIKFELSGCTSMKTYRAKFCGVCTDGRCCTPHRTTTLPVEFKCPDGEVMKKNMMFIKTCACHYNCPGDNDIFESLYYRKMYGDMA

T2: CTGF and betaglycan (Homo sapiens, UniProt P29279)
T2 sequence (P29279 27-349): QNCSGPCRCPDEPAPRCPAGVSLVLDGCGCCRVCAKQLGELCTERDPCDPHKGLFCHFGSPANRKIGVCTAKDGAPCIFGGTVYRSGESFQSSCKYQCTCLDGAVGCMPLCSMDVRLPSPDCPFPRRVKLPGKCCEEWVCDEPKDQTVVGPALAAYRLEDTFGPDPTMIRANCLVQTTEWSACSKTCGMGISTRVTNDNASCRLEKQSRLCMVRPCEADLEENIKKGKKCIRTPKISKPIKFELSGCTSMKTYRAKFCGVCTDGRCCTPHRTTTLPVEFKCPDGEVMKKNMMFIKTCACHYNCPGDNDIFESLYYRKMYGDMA

T3: recombinant human CTGF (rhCTGF) (Homo sapiens, UniProt P29279)
T3 construct: in the presence of no CTGF, full-length CTGF, the N-terminal half of CTGF (NH2 fragment); made in house; host or cells: Hi5 insect cells infected with baculovirus (pFASTBAC1; virus generated in Sf9)
T3 sequence (P29279 27-349): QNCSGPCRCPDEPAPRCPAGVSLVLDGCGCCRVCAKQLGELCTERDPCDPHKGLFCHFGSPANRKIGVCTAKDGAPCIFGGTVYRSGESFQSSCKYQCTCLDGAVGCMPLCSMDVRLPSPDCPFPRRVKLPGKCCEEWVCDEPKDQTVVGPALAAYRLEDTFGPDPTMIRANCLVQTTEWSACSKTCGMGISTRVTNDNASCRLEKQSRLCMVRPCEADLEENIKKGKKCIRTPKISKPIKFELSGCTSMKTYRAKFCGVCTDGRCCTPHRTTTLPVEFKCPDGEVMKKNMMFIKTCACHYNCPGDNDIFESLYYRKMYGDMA


Experiments:
[1] = molecular target: T1, CTGF; test: Co-immunoprecipitation assay, interaction with CTGF; format: binding; conditions: FIG. 8A, FIG. 9
Protocol: (§1) Co-immunoprecipitation is a purification procedure used to determine if two different molecules, e.g., proteins, directly interact. Basically, an antibody specific to a protein of interest is added to a cell lysis under conditions suitable for antibody binding to the protein. The antibody-protein complex is then collected, e.g., using protein-G sepharose, which binds most antibodies. Any molecules that are bound to the precipitated protein will also be collected. Identification of proteins can be determined by, e.g., western blot or by direct sequencing of the purified protein(s). Several commercial kits, e.g., the PROFOUND co-immunoprecipitation kit from Pierce Biotechnology, Inc. (Rockford Ill.) are also available.
(§2) In the present examples, co-immunoprecipitations were performed as follows. The surface of intact cells was iodinated with ^125I prior to lysing cells and fractionating on a CTGF affinity column. Alternatively, CTGF and labeled cells were incubated for a period sufficient for CTGF binding to cells, and then cells were lysed and immunoprecipitations were performed using anti-CTGF specific antibodies. Antibody complexes were collected from the lysate using protein-G sepharose, and pelleted by centrifugation. Proteins eluted from affinity columns or collected by immunoprecipitation were analyzed by fractionation on SDS-PAGE and visualized by autoradiography. […]

[2] = molecular target: T2, CTGF and betaglycan; test: Co-immunoprecipitation assay, binding between CTGF and betaglycan; conditions: soluble betaglycan, bFGF and CTGF mixed; dose-sensitive; FIG. 9
Protocol: as §1, §2

[3] = molecular target: T3, recombinant human CTGF (rhCTGF); test: Cell adhesion assay (CTGF-mediated cell adhesion); format: cell-based; conditions: HFF cells; increasing concentrations added to the adhesion reaction; FIGS. 3C, 6A, 7A
Protocol: Methods for measuring cell adhesion mediated by CTGF are generally known to those skilled in the art. (See, e.g., Babic et al. (1999) Mol Cell Biol 19:2958-296; Ball et al. (2003) J Endocrinol 176:R1-7.) In some experiments, wells of a MAXISORP plate (Nunc Nalgene) were treated with 10 μg/ml recombinant human CTGF (rhCTGF) to directly adsorb CTGF to the well. Alternatively, wells were coated with a human monoclonal antibody specific for human CTGF, and then were blocked with bovine serum albumin to prevent non-specific binding. 2 μg/1 ml rhCTGF or fragments thereof, or a vehicle control was added to each well. Plates were then washed 3 times with PBS, cells were added at a seed density of approximately 8×10^3 cells/well, and plates were incubated for 45 minutes at 37° C. Wells were then washed twice, and the number of cells retained in each well was measured using a CYQUANT cell proliferation assay kit (Molecular Probes, Inc., Eugene Oreg.). Alternatively, attached cells were lysed in 2% Triton and lactate dehydrogenase (LDH) activity was measured using a cytotoxicity detection (LDH) kit (Roche Diagnostics Corp., Chicago, Ill.). LDH levels were compared against a standard curve generated using known numbers of cells, and results of experiment were expressed as numbers of attached cells per well.
CTGF has been described as a heparin-binding growth factor. As cells may carry a variety of proteoglycan moieties on their surface, e.g., heparan sulfate, chondroitin sulfate, etc. (see FIG. 3A), the following experiment was conducted to determine the specificity of CTGF for such moieties. The cell adhesion and cell binding assays were conducted as described in Examples 3.1 and 3.2, respectively, except prior to seeding cells were treated for 1 hour at 37° C. with either vehicle, 4 units/ml heparinase I, or 2 units/ml chondroitinase ABC.
To further examine the requirement for heparan sulfate proteoglycans in CTGF-mediated cell adhesion, adhesion was measured in the presence of increasing amounts of heparin. […]

[4] = molecular target: T1, CTGF; test: CTGF displacement assay (endogenous CTGF displaced from cells, sandwich ELISA); format: cell-based; design: measured displacement of CTGF endogenously produced by cells; endogenous in cells; host or cells: HLF and MG63 cells (constitutive or TGF-β2-induced expression); conditions: HLF or MG63 cells; titrated amounts of sulfated polysaccharides; FIGS. 6B, 7B
Protocol: Alternatively, cell binding was measured using a CTGF displacement assay. The displacement assay used in the present examples measured displacement of CTGF endogenously produced by cells. HLF and MG63 cells were separately used in the displacement assay as follows. In all experiments, cells were plated in 96-well tissue culture plates at a seed density of 2.5×10^4 cells/well. Cells were incubated for approximately 24 hours at 37° C., and then medium was replaced with a serum-free medium containing titrated amounts of sulfated polysaccharides (glycosaminoglycans, GAGs). In some experiments, constitutive CTGF expression accounted for the displaced CTGF, whereas in other experiments additional levels of CTGF were induced by addition of TGF-β2 in culture media 30 minutes prior to change of media and addition of GAGs. MG63 cells were incubated for either 3 or 6 hrs, and HLF cells were incubated for 20 hrs, at 37° C., and then conditioned media was assayed for N-fragment and full-length CTGF using a sandwich ELISA assay. (See International Publication No. WO 03/024308.)
To determine size requirements for modulation of CTGF-mediated cell adhesion and cell binding, heparin moieties containing differing saccharide subunit number were examined. Polysaccharide lengths tested ranged from 10 to approximately 50 saccharides, and experiments were carried out as described in examples 3.1 and 3.3. […]

[5] = molecular target: T1, CTGF; test: CTGF binding assay (binding of CTGF to cells, FACS); format: cell-based; conditions: increasing concentrations of heparin or modified heparin, FIG. 4
Protocol: Methods for measuring binding of CTGF to cells are generally known to those skilled in the art. (See, e.g., Nishida (1998) Biochem Biophys Res Commun 247:905-909; Segarini et al. (2001) J Biol Chem 276:40659-40667.) In one method used herein, cells were suspended in media containing CTGF under conditions suitable for binding of CTGF to cellular targets, e.g., incubation at 4° C. Cells may optionally be treated prior to or concurrently with CTGF exposure; for example, cells may be treated with enzymes that alter cell surface moieties, molecules that compete competitively or non-competitively with CTGF for binding to cells, etc. Following incubation, cells were washed and then incubated with fluorescently-labeled anti-CTGF antibody. The level of CTGF binding was then measured using a FACS apparatus.
To determine the specificity of sulfation and charge distribution for CTGF-mediated cell adhesion and cell binding, experiments as described in Examples 3.1, 3.2, and 3.3, were performed with the following modification. Combination of HFF cells with CTGF was accompanied by addition of increasing concentrations of heparin that was modified to contain differing amounts of sulfation and/or acetylation.

interaction with CTGF (co-immunoprecipitation with anti-CTGF antibodies) [1]	CTGF-mediated (CTGF-dependent) cell adhesion, effect of added polysaccharide [3]	binding of CTGF to cells (displacement assay) [4]	binding of CTGF to HFF, inhibition [5]	Molecule	binding between CTGF and betaglycan in the presence of the factor [2]
clear interaction	–	–	–	bFGF: basic fibroblast growth factor	adversely influenced
–	no modulation	no modulation	–	chondroitin sulfate [naturally sulfated chondroitin]	–
–	no modulation	no modulation	–	dermatan sulfate [naturally sulfated dermatan]	–
–	inhibited	–	substantially inhibit	heparin	–
dose-sensitive interaction	–	–	–	sBetaglycan: soluble betaglycan (TGF-β type III receptor), a heparan sulfate proteoglycan (protein, UniProt Q03167 21-787, looked up, extracellular domain, soluble betaglycan (TGF-β type III receptor), a heparan sulfate proteoglycan) extracellular domain: GPEPGALCELSPVSASHPVQALMESFTVLSGCASRGTTGLPQEVHVLNLRTAGQGPGQLQREVTLHLNPISSVHIHHKSVVFLLNSPHPLVWHLKTERLATGVSRLFLVSEGSVVQFSSANFSLTAETEERNFPHGNEHLLNWARKEYGAVTSFTELKIARNIYIKVGEDQVFPPKCNIGKNFLSLNYLAEYLQPKAAEGCVMSSQPQNEEVHIIELITPNSNPYSAFQVDITIDIRPSQEDLEVVKNLILILKCKKSVNWVIKSFDVKGSLKIIAPNSIGFGKESERSMTMTKSIRDDIPSTQGNLVKWALDNGYSPITSYTMAPVANRFHLRLENNAEEMGDEEVHTIPPELRILLDPGALPALQNPPIRGGEGQNGGLPFPFPDISRRVWNEEGEDGLPRPKDPVIPSIQLFPGLREPEEVQGSVDIALSVKCDNEKMIVAVEKDSFQASGYSGMDVTLLDPTCKAKMNGTHFVLESPLNGCGTRPRWSALDGVVYYNSIVIQVPALGDSSGWPDGYEDLESGDNGFPGDMDEGDASLFTRPEIVVFNCSLQQVRNPSSFQEQPHGNITFNMELYNTDLFLVPSQGVFSVPENGHVYVEVSVTKAEQELGFAIQTCFISPYSNPDRMSHYTIIENICPKDESVKFYSPKRVHFPIPQADMDKKRFSFVFKPVFNTSLLFLQCELTLCTKMEKHPQKLPKCVPPDEACTSLDASIIWAMMQNKKTFTKPLAVIHHEAESKEKGPSMKEPNPISPPIFHGLDTLTV	–
